Measured values from patent US20080009025A1, “PROTEIN KINASE REGULATION” (priority 1999, published 2008).
Where a SMILES comes first, the peptide text is derived from it.

Legend:
[1] = biological target: T1, PDK1 (Homo sapiens, UniProt O15530); parameters: Full length PDK1 (residues 1-556); made in house; host or cells: 293 cells; conditions: ref [17]; cited from earlier work
T1 sequence (O15530 1-556): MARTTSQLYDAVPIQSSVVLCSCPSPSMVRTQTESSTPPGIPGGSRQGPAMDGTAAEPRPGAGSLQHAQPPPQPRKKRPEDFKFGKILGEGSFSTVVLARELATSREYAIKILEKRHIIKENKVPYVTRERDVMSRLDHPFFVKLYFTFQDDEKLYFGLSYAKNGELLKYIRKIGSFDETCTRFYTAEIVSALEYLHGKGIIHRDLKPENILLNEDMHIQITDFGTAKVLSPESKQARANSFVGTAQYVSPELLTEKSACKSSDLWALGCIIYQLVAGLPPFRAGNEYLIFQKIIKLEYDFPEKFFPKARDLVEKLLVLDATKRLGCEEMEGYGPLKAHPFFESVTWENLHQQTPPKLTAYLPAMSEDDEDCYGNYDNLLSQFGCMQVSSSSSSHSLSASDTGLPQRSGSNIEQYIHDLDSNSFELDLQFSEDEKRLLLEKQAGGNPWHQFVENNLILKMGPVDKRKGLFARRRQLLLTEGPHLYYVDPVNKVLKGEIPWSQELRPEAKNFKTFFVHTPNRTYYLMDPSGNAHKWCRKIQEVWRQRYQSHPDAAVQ

[2] = biological target: T2, GST-PDK1 (Homo sapiens, UniProt O15530); assay: Thermal denaturation of PDK1 (TM50); format: biochemical; conditions: wild type GST-PDK1; heated 2 min
T2 construct: Full length PDK1 (residues 1-556); made in house; host or cells: 293 cells
T2 sequence (O15530 1-556): T1 sequence (O15530 1-556)
Description: A further aspect of the invention provides the use of an interacting polypeptide as defined above, for example comprising the amino acid sequence Phe/Tyr-Xaa-Xaa-Phe/Tyr or an interacting compound of the invention in a method of stabilising a protein kinase having a hydrophobic pocket in the position equivalent to the hydrophobic pocket of Protein Kinase A (PKA) that is defined by residues including Lys76, Leu116, Val80 and/or Lys111 of full-length mouse PKA, wherein the protein kinase is exposed to the compound or polypeptide. Stabilisation may be measured by measuring the TM50 value. The TM50 value is the temperature at which heating for two minutes produces a 50% reduction in protein kinase activity (measured using any appropriate substrate) compared with the protein kinase activity before such heating, as described in Example 2. An increase in the TM50 value, for example by at least about 1, 2, 3, 4, 5, 6, 7, 8, 9, 10 or 15° C. indicates stabilisation.
FIG. 12. PDK1 is activated and stabilised through its interaction with PIFtide. (A) GST-PDK1 activity was measured in the presence of increasing concentrations of wild type (wt) PIFtide (closed circles) or a mutant D978A PIFtide (open circles) using the synthetic peptide substrate termed T308tide, as described in Material and Methods. The data was fitted to a hyperbola using the Kaleidagraph™ software. […]

[3] = biological target: T3, Myc-PDK1 (Homo sapiens, UniProt O15530); assay: Glutathione-Sepharose pull-down of Myc-PDK1 with GST-PIF from 293 cells; format: binding
T3 construct: expressed in transfected cells; host or cells: 293 cells
T3 sequence (O15530 1-556): T1 sequence (O15530 1-556)
Method: FIG. 9. Effect of mutation of conserved residues in the PIF-binding pocket of PDK1 on the ability to interact with PIF. 293 cells were transiently transfected with DNA constructs expressing GST-PIF and either wild type Myc-PDK1 or the indicated mutants of PDK1. 36 h post transfection the cells were lysed and GST-PIF purified by affinity chromatography on glutathione-Sepharose beads. 2 μg of each protein was electrophoresed on a 10% SDS/polyacrylamide gel and either stained with Coomassie blue (A and E) or immunoblotted using an anti Myc antibody to detect Myc-PDK1 (B and F). To establish that the wild type PDK1 and mutant proteins were expressed at a similar level, 10 μg of total cell lysate was electrophoresed on a 10% SDS/polyacrylamide gel and immunoblotted using anti-Myc antibodies (C and G). Duplicates of each condition are shown. Similar results were obtained in 3 to 5 separate experiments. […]
A pEBG2T plasmid encoding GST fused to the last 77 residues of PRK2 termed GST-PIF (10 μg) and pCMV5 plasmid expressing Myc-PDK1 wild type or the indicated mutants of PDK1 (10 μg), were co-transfected into a 10 cm diameter dish of 293 cells using a modified calcium phosphate method. […] The gels were either stained with Coomassie blue, or analysed by immunoblotting with anti Myc antibodies.

Molecule | increase in the rate at which PDK1 phosphorylated T308tide [1] | increase of TM50 [2] | complex with wild type PDK1 [3]
CC[C@H](C)[C@H](NC(=O)[C@H](Cc1ccc(O)cc1)NC(=O)[C@H](CC(=O)O)NC(=O)[C@H](Cc1ccccc1)NC(=O)[C@H](CC(=O)O)NC(=O)[C@H](CCCNC(=N)N)NC(=O)[C@H](Cc1ccccc1)NC(=O)[C@H](CCSC)NC(=O)[C@H](CCC(=O)O)NC(=O)[C@H](CCC(N)=O)NC(=O)[C@H](CCC(=O)O)NC(=O)[C@H](CCC(=O)O)NC(=O)[C@H](CCC(=O)O)NC(=O)[C@H](CO)NC(=O)[C@H](CC(C)C)NC(=O)[C@@H](NC(=O)[C@H](CCCNC(=N)N)NC(=O)[C@@H]1CCCN1C(=O)[C@H](CCC(=O)O)NC(=O)[C@@H](N)CCCNC(=N)N)[C@@H](C)CC)C(=O)N[C@@H](C)C(=O)N[C@@H](CC(=O)O)C(=O)N[C@@H](Cc1c[nH]c2ccccc12)C(=O)N[C@@H](CS)C(=O)O [PIFtide] (H-REPRILSEEEQEMFRDFDYIADWC-OH; N-terminus and C-terminus assumed) | 4 fold | 8-10 °C | 
GST-PIF: glutathione S-transferase fused to the last 77 residues of PRK2 (PIF) |  |  | a complex was readily observed
